Source: patent EP1377579B1 (Aventis Pharmaceuticals Inc., priority 2000, dated 2002)
Counter-ions that a name gives are not always drawn. Like-named read-outs stand apart in the source and are kept apart here.

How the values were obtained:
cdk1/cyclin B = cdk1/cyclin B (Homo sapiens, UniProt P06493); assay: Cyclin-dependent kinase assay, cdk1/cyclin B; settings: CDK1 IC50, nM, Histone H1, 10 µM ATP
NCI-H460 = assay: In vitro proliferation assay (MTT), NCI-H460; assay type: cell-based; settings: Homo sapiens, NCI-H460; MTT assay; value (SD, n) where given; read-out: H-460 Lung (IC50 µM)
Method: (§1) The proliferation of tumor cells can be measured using a tetrazolium salt-based assay known as the MTT (3-[4,5-Dimethylthiazol-2-yl]-2,5-diphenyltetrazolium bromide) assay. The proliferation test is performed essentially as described by Carmichael et al., Cancer Res. 47: 936-942, 1987. For the assay, the cell lines are plated onto 96 well plates at 1000 to 2500 cells/well (depending on the properties of the individual cell lines), left to attach and recover overnight. […] After 3 days, the cells are incubated with MTT dye (3-[4,5-Dimethylthiazol-2-yl]-2,5-diphenyltetrazolium bromide, Sigma # M5655, 10 mg/ml in Hank's Buffered Saline) to estimate the amount of live cells remaining vs. concentration for the test compounds. Specifically, MTT solution is added to a final concentration of […] and the plates incubated at 37 C for 2 to 4 hr. The MTT and culture medium is then removed from the cultures and 200 µl of DMSO is added to solubilize the dye from the cell layer. The absorbance at 570 nm is determined for each culture using a Spectramax plate reader (Molecular Devices).
(§2) IC50s were determined from the raw data from either the MTT or SRB assays.
All of the cell lines were obtained from American Type Tissue Collection, with the ATCC accession number in parentheticals. MCF-7 and MDA-MB-231 cells were grown in improved minimum essential medium (Biofluids) without phenol red, supplemented with 5 % fetal bovine serum, 0.01 mg/ml gentamicin and 3 mM L-glutamine. All of the other cell lines were grown in RPMI 1640 medium (Life Technologies) supplemented with 5 % fetal bovine serum, 0.01 mg/ml gentamicin and 3 mM L-glutamine TABLE 3

MDA-MB-435 = assay: In vitro proliferation assay (MTT), MDA-MB-435; assay type: cell-based, human; settings: value (SD, n) where given, read-out: MB-435 Breast (IC50 µM)
Procedure, shortened: (§3)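 Following 3 days of compound treatment, MTT was added and the dye dissolved in DMSO for 570 nm absorbance; IC50s derived from these raw readings. Seeding density 1000 to 2500 cells/well depending on line, with overnight recovery before dosing.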

cdk2/cyclin E = cdk2/cyclin E (Homo sapiens, UniProt P24941); assay: Cyclin-dependent kinase assay, cdk2/cyclin E; settings: CDK2 IC50, nM, GST-pRb substrate, 10 µM ATP
PC-3 = assay: In vitro proliferation assay (MTT), PC-3; assay type: cell-based, human; settings: value (SD, n) where given, read-out: PC-3 Prostate (IC50 µM)
Procedure, shortened: as §3

cdk4/cyclin D1 = cdk4/cyclin D1 (Homo sapiens, UniProt P11802); assay: Cyclin-dependent kinase assay, cdk4/cyclin D1; assay type: biochemical; settings: cyclin D1/cdk4; GST-pRb substrate, 10 µM ATP
cdk4/cyclin D1, sequence (P11802 whole entry): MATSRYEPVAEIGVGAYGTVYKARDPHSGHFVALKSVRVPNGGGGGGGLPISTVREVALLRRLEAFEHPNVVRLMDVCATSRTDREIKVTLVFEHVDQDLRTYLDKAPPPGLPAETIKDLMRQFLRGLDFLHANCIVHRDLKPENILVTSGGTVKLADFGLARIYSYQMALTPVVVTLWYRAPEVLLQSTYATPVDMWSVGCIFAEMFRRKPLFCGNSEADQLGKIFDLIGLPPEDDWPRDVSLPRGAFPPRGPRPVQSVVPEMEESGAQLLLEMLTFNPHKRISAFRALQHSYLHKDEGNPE
cdk4/cyclin D1, sequence (P24385 whole entry partner): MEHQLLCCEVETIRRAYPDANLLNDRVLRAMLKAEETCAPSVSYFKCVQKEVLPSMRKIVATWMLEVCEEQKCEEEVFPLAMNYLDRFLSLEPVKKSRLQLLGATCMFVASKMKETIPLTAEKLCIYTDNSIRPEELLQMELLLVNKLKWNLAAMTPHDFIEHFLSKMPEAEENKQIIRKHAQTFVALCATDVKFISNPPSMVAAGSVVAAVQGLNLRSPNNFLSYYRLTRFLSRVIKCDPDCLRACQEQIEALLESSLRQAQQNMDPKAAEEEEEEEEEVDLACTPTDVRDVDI

Colo-205 = assay: In vitro proliferation assay (MTT), Colo-205; assay type: cell-based; settings: Homo sapiens, COLO 205; MTT assay; value (SD, n) where given; read-out: Colo-205 Colon (IC50 µM)
Method: as §1, §2

[1] = Homo sapiens, MDA-MB-435, MTT assay

cdk1/cyclin B, sequence (P06493 whole entry): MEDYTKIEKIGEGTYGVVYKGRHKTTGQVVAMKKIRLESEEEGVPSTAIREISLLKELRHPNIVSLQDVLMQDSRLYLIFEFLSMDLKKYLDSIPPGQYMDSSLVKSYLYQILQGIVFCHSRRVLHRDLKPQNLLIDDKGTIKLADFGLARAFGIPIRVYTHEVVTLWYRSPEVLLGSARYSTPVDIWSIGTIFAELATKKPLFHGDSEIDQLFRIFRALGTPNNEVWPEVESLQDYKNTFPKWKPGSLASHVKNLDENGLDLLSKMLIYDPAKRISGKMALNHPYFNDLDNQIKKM
cdk1/cyclin B, sequence (P14635 whole entry partner): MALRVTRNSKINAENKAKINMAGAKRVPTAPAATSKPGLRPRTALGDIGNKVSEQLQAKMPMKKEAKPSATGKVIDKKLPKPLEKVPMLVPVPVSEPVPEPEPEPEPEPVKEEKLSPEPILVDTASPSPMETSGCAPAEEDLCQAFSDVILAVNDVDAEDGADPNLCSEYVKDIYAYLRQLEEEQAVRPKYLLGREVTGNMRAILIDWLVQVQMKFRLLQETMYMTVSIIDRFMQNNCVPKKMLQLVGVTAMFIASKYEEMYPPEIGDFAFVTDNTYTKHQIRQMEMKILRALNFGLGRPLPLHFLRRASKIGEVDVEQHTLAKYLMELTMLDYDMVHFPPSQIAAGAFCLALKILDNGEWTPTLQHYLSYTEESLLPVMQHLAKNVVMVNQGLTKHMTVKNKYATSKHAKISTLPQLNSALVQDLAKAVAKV

| SMILES | IC50 (cdk1/cyclin B) [nM] | IC50 (NCI-H460) [µM] | IC50 (MDA-MB-435; MTT assay, dihydrochloride) [µM] | IC50 (cdk2/cyclin E) [nM] | IC50 (PC-3; MTT assay, dihydrochloride) [µM] | IC50 (cdk4/cyclin D1) [µM] | IC50 (Colo-205) [µM] | IC50 (MDA-MB-435; [1]) [µM] | IC50 (PC-3; Homo sapiens, PC-3, MTT assay) [µM] |
| --- | --- | --- | --- | --- | --- | --- | --- | --- | --- |
| N[C@H]1CC[C@H](Nc2nc(NC3CCN(C(=O)c4cccc(Cl)c4)CC3)c3ncn(C4CCCC4)c3n2)CC1 [compound 6, trans-1-{4-[2-(4-Amino-cyclohexylamino)-9-cyclopentyl-9H-purin-6-ylamino]-piperidin-1-yl}-1-(3-chloro-phenyl)-methanone dihydrochloride] | 160 | 0.24 | 0.44 | 201 | 1.2 | 0.087 | < 0.02 | – | – |
| COc1ccccc1C(=O)N1CCC(Nc2nc(N[C@H]3CC[C@H](N)CC3)nc3c2ncn3C2CCCC2)CC1 [compound 7, trans-1-{4-[2-(4-Amino-cyclohexylamino)-9-cyclopentyl-9H-purin-6-ylamino]-piperidin-1-yl}-1-(2-methoxy-phenyl)-methanone dihydrochloride] | 399 | 1.11 | – | 487 | – | 0.096 | < 0.02 | 1.34 | 2.26 |
| COc1ccc(C(=O)N2CCC(Nc3nc(N[C@H]4CC[C@H](N)CC4)nc4c3ncn4C3CCCC3)CC2)cc1 [compound 8, trans-1-{4-[2-(4-Amino-cyclohexylamino)-9-cyclopentyl-9H-purin-6-ylamino]-piperidin-1-yl}-1-(4-methoxy-phenyl)-methanone dihydrochloride] | 74 | 0.18 | – | 137 | – | 0.711 | 0.06 | 0.75 | 0.86 |
| N[C@H]1CC[C@H](Nc2nc(NC3CCN(C(=O)c4cccs4)CC3)c3ncn(C4CCCC4)c3n2)CC1 [compound 10, trans-1-{4-[2-(4-Amino-cyclohexylamino)-9-cyclopentyl-9H-purin-6-ylamino]-piperidin-1-yl}-1-thiophen-2-yl-methanone dihydrochloride] | 49 | 0.14 | – | 57 | – | 0.761 | < 0.02 | 0.8 | 1.24 |
| COC(=O)c1ccc(C(=O)N2CCC(Nc3nc(N[C@H]4CC[C@H](N)CC4)nc4c3ncn4C3CCCC3)CC2)cc1 [compound 11, trans-4-(1-{4-[2-(4-Amino-cyclohexylamino)-9-cyclopentyl-9H-purin-6-ylamino]-piperidin-1-yl}-methanoyl)-benzoic acid methyl ester dihydrochloride] | 46 | 0.39 | – | 78 | – | 0.62 | 0.27 | 0.57 | 0.72 |
| N[C@H]1CC[C@H](Nc2nc(NC3CCN(C(=O)COc4ccccc4)CC3)c3ncn(C4CCCC4)c3n2)CC1 [compound 28, trans-1-{4-[2-(4-Amino-cyclohexylamino)-9-cyclopentyl-9H-purin-6-ylamino]-piperidin-1-yl}-2-phenoxy-ethanone dihydrochloride] | 20 | 0.21 | – | 52 | – | 0.14 | 0.09 | 0.21 | 0.22 |
| N[C@H]1CC[C@H](Nc2nc(NC3CCN(C(=O)COc4ccc(Cl)cc4)CC3)c3ncn(C4CCCC4)c3n2)CC1 [compound 31, trans-1-{4-[2-(4-Amino-cyclohexylamino)-9-cyclopentyl-9H-purin-6-ylamino]-piperidin-1-yl}-2-(4-chloro-phenoxy)-ethanone dihydrochloride] | 105 | 0.19 | – | 5 | – | 2.04 | 0.04 | 0.17 | 0.16 |
| CC1(C)C2CCC1(CS(=O)(=O)N1CCC(Nc3nc(N[C@H]4CC[C@H](N)CC4)nc4c3ncn4C3CCCC3)CC1)C(=O)C2 (stereo partly drawn) [compound 107, trans-1-{4-[2-(4-Amino-cyclohexylamino)-9-cyclopentyl-9H-purin-6-ylamino]-piperidine-1-sulfonylmethyl}-7,7-dimethyl-bicyclo[2.2.1]heptan-2-one dihydrochloride] | 250 | 0.29 | – | 35 | – | 0.01 | 0.18 | 0.11 | 0.41 |

Next, values leading:

| IC50 (cdk1/cyclin B) [nM] | IC50 (NCI-H460) [µM] | IC50 (MDA-MB-435; MTT assay, dihydrochloride) [µM] | IC50 (cdk2/cyclin E) [nM] | IC50 (PC-3; MTT assay, dihydrochloride) [µM] | IC50 (cdk4/cyclin D1) [µM] | IC50 (Colo-205) [µM] | IC50 (MDA-MB-435; [1]) [µM] | IC50 (PC-3; Homo sapiens, PC-3, MTT assay) [µM] | SMILES |
| --- | --- | --- | --- | --- | --- | --- | --- | --- | --- |
| 58 | 0.24 | – | 30 | – | 0.427 | 0.07 | 0.26 | 0.33 | N[C@H]1CC[C@H](Nc2nc(NC3CCN(C(=O)CCc4ccccc4)CC3)c3ncn(C4CCCC4)c3n2)CC1 [compound 33, trans 1-{4-[2-(4-Amino-cyclohexylamino)-9-cyclopentyl-9H-purin-6-ylamino]-piperidin-1-yl}-3-phenyl-propan-1-one dihydrochloride] |
| 15 | 0.23 | – | 32 | – | 1.7 | < 0.02 | 0.26 | 0.2 | N[C@H]1CC[C@H](Nc2nc(NC3CCN(C(=O)COCc4ccccc4)CC3)c3ncn(C4CCCC4)c3n2)CC1 [compound 37, trans-1-{4-[2-(4-Amino-cyclohexylamino)-9-cyclopentyl-9H-purin-6-ylamino]-piperidin-1-yl}-2-benzyloxy-ethanone dihydrochloride] |
| 153 | 0.17 | – | 55 | – | 0.709 | 0.06 | 0.17 | 0.19 | N[C@H]1CC[C@H](Nc2nc(NC3CCN(C(=O)CSc4ccccc4)CC3)c3ncn(C4CCCC4)c3n2)CC1 [compound 46, trans-1-{4-[2-(4-Amino-cyclohexylamino)-9-cyclopentyl-9H-purin-6-ylamino]-piperidin-1-yl}-2-phenylsulfanylethanone dihydrochloride] |
| 23 | 0.24 | – | 66 | – | 0.441 | 0.16 | 0.17 | 0.21 | N[C@H]1CC[C@H](Nc2nc(NC3CCN(C(=O)C4CCC4)CC3)c3ncn(C4CCCC4)c3n2)CC1 [compound 63, trans-1-{4-[2-(4-Amino-cyclohexylamino)-9-cyclopentyl-9H-purin-6-ylamino]-piperidin-1-yl}-1-cyclobutyl-methanone dihydrochloride] |
| 7 | 0.29 | – | 8 | – | 0.069 | 0.21 | 0.18 | 0.5 | N[C@H]1CC[C@H](Nc2nc(NC3CCN(S(=O)(=O)c4ccccc4)CC3)c3ncn(C4CCCC4)c3n2)CC1 [compound 105, trans-N^2-(4-Amino-cyclohexyl)-N^6-(1-benzenesulfonyl-piperidin-4-yl)-9-cyclopentyl-9H-purine-2,6-diamine dihydrochloride] |
| 7 | 0.29 | – | 10 | – | 0.17 | 0.18 | 0.14 | 0.43 | N[C@H]1CC[C@H](Nc2nc(NC3CCN(S(=O)(=O)c4ccc(Cl)cc4)CC3)c3ncn(C4CCCC4)c3n2)CC1 [compound 108, trans-N -(4-Amino-cyclohexyl)-9-cyclopentyl-N^6-[1-(4-chloro-benzenesulfonyl)-piperidin-4-yl]-9H-purine-2,6-diamine dihydrochloride] |
| 27 | 0.65 | – | 9 | – | 0.158 | 0.25 | 0.44 | 0.76 | Cc1noc(C)c1S(=O)(=O)N1CCC(Nc2nc(N[C@H]3CC[C@H](N)CC3)nc3c2ncn3C2CCCC2)CC1 [compound 110, trans-N^2-(4-Amino-cyclohexyl)-9-cyclopentyl-N^6-[1-(3,5-dimethyl-isoxazole-4-sulfonyl)-piperidin-4-yl]-9H-purine-2,6-diamine dihydrochloride] |
